Experimental data: patent publication US20250281479A1, “TREATMENT OF CAVERNOUS ANGIOMAS WITH A 4-SUBSTITUTED PIPERIDINE DERIVATIVE” (Neurelis, Inc., priority 2024, published 2025)
Read-outs that look alike come from different tables or passages of the source.

Legend:
[1] = nonclinical pharmacokinetics after a single oral dose; type: in vivo, mice, rats, and monkeys
Description: (§1) Exposure to NRL-2017 was similar or greater (up to 5-fold) than that to NRL-1049 in rats when dosed once a day (QD). In monkeys, exposure to NRL-2017 was also greater (up to 33-fold) than that to NRL-1049. When rats were dosed twice a day (BID) for 14 days, there was a decrease in formation of NRL-2017 with exposure to NRL-2017 lower than that of NRL-1049 (ratio as low as 0.06). […] NRL-1049 bound to human serum albumin and human alpha1-acid glycoprotein. […] There was also inhibition of P-glycoprotein (P-gp) (only CACO-2 cells), organic anion transporting polypeptides (OATP) OATP1B1, OATP1B3 and OAT3 (IC50, >100 μM), but no effect on P-gp (MDCK2 cells), breast cancer resistance protein (BCRP), bile salt export pump (BSEP), or MATE2-K. NRL-1049 is a substrate for P-gp, not BCRP. […] This conclusion will be revisited when human pharmacokinetic (PK) data becomes available.

[2] = test system: mouse, monkey, and human hepatocytes; assay: incubation with hepatocytes (mouse, monkey, human); type: in vitro ADME
Description: as §1

dog hepatocytes = assay: incubation with dog hepatocytes; type: in vitro ADME
Description: as §1

rat hepatocytes = assay: incubation with rat hepatocytes; type: in vitro ADME; conditions: two metabolites formed, NRL-2017 and an N-oxide
Description: as §1

[3] = tissue distribution and excretion; type: in vivo
Description: as §1

plasma protein binding = type: in vitro ADME, mouse; conditions: range over mouse, rat, dog, monkey, minipig and human plasma; read-out: % free drug
Description: as §1

plasma protein = plasma protein binding; type: in vitro ADME, mouse; conditions: mouse, rat, dog, monkey, minipig and human plasma
Description: as §1

human serum albumin = human serum albumin (Homo sapiens, UniProt P02768); assay: binding to human serum albumin; type: in vitro ADME
Description: as §1

[4] = test system: human alpha1-acid glycoprotein; assay: binding to human alpha1-acid glycoprotein; type: in vitro ADME
Description: as §1

CYP2D6 [5] = target: T1, CYP2D6 (Homo sapiens, UniProt P10635); assay: CYP isozyme mediating metabolism; type: in vitro ADME
Description: as §1

CYP2C8 = CYP2C8 (Homo sapiens, UniProt P10632); assay: CYP inhibition; type: in vitro ADME; conditions: read-out: half-maximal inhibitory concentration (IC50)
Description: as §1

CYP2D6 [6] = target: T1, CYP2D6; assay: CYP inhibition; type: in vitro ADME; conditions: read-out: half-maximal inhibitory concentration (IC50)
Description: as §1

CYP3A4/5 = assay: CYP inhibition; type: in vitro ADME; conditions: human
Description: as §1

cytochrome P450 (CYP) = assay: metabolite or time-dependent CYP inhibition; type: in vitro ADME
Description: as §1

CYP1A2 = assay: CYP induction in hepatocyte culture; type: in vitro ADME; conditions: in at least one hepatocyte culture
Description: as §1

CYP3A4 = assay: CYP induction in hepatocyte culture; type: in vitro ADME; conditions: in at least one hepatocyte culture
Description: as §1

CYP2B2 = assay: CYP expression in hepatocyte culture; type: in vitro ADME; conditions: at concentrations as low as 3.2 μM
Description: as §1

MATE1 = MATE1 (Homo sapiens, UniProt Q96FL8); assay: transporter inhibition; type: in vitro ADME; conditions: one range printed for OAT1, OCT1, OCT2 and MATE1 together
Description: as §1

OAT1 = OAT1 (Homo sapiens, UniProt Q4U2R8); assay: transporter inhibition; type: in vitro ADME; conditions: one range printed for OAT1, OCT1, OCT2 and MATE1 together
Description: as §1

OAT3 = OAT3 (Homo sapiens, UniProt Q8TCC7); assay: transporter inhibition; type: in vitro ADME
Description: as §1

OATP1B1 = OATP1B1 (Homo sapiens, UniProt Q9Y6L6); assay: transporter inhibition; type: in vitro ADME
Description: as §1

OATP1B3 = OATP1B3 (Homo sapiens, UniProt Q9NPD5); assay: transporter inhibition; type: in vitro ADME
Description: as §1

OCT1 = OCT1 (Homo sapiens, UniProt O15245); assay: transporter inhibition; type: in vitro ADME; conditions: one range printed for OAT1, OCT1, OCT2 and MATE1 together
Description: as §1

OCT2 = OCT2 (Homo sapiens, UniProt O15244); assay: transporter inhibition; type: in vitro ADME; conditions: one range printed for OAT1, OCT1, OCT2 and MATE1 together
Description: as §1

[7] = target: T2, P-glycoprotein (P-gp) (only CACO-2 cells) (Homo sapiens, UniProt P08183); assay: transporter inhibition; type: in vitro ADME
T2 construct: endogenous in cells; host or cells: CACO-2 cells
Description: as §1

P-gp (MDCK2 cells) = target: T3, P-gp (MDCK2 cells) (Homo sapiens, UniProt P08183); assay: transporter inhibition; type: in vitro ADME
T3 construct: host or cells: MDCK2 cells
Description: as §1

[8] = target: bile salt export pump (BSEP) (Homo sapiens, UniProt O95342); assay: transporter inhibition; type: in vitro ADME
Description: as §1

[9] = target: breast cancer resistance protein (BCRP) (Homo sapiens, UniProt Q9UNQ0); assay: transporter inhibition; type: in vitro ADME
Description: as §1

BCRP = BCRP (Homo sapiens, UniProt Q9UNQ0); assay: transporter substrate assessment; type: in vitro ADME
Description: as §1

P-gp = P-gp (Homo sapiens, UniProt P08183); assay: transporter substrate assessment; type: in vitro ADME
Description: as §1

T1 sequence (P10635 whole entry): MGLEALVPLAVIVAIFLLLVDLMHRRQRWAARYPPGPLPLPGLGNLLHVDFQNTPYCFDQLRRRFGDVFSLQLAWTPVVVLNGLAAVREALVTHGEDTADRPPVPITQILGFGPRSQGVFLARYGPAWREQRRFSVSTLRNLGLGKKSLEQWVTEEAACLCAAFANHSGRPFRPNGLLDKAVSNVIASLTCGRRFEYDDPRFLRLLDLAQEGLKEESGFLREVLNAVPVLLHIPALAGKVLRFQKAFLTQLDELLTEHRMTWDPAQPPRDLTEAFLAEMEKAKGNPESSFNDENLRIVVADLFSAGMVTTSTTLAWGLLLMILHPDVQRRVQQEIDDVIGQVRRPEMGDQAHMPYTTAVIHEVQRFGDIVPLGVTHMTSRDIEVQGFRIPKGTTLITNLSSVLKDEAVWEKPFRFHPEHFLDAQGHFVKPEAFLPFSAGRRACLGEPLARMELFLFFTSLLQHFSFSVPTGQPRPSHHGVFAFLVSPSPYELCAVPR
Chain of bile salt export pump (BSEP) (O95342 whole entry): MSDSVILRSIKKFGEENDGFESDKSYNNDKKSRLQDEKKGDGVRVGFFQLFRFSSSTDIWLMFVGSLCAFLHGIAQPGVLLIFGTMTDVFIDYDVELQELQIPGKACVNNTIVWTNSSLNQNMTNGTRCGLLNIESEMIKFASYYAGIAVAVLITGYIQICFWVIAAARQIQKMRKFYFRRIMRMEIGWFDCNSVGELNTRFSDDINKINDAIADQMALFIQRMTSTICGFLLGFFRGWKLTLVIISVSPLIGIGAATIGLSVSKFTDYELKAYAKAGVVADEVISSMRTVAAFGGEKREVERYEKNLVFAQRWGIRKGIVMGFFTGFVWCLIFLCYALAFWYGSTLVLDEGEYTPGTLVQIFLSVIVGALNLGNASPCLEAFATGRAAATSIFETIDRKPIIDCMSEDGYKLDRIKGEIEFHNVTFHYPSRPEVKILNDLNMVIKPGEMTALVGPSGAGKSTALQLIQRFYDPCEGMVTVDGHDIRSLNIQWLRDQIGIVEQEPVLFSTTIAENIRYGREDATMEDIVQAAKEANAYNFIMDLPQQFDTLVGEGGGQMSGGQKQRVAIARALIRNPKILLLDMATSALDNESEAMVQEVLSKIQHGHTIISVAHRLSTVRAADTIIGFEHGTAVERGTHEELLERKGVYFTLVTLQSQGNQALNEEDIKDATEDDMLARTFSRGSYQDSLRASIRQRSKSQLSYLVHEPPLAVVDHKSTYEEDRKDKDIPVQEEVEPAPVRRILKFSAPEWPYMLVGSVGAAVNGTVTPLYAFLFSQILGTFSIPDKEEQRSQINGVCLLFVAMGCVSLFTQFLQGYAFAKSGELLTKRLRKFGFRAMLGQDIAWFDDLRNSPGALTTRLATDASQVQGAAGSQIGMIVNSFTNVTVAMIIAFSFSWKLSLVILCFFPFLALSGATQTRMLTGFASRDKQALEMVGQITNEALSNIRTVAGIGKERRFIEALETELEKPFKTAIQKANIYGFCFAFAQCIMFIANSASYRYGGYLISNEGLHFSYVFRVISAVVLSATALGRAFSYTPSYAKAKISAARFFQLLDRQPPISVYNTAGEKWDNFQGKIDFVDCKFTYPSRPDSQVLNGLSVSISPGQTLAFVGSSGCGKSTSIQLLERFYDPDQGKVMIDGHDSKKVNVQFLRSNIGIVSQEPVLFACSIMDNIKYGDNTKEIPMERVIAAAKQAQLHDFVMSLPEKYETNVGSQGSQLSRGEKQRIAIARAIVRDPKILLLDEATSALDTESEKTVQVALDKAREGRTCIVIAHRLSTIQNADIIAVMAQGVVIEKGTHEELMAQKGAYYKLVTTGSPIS
Chain of OAT3 (Q8TCC7 whole entry): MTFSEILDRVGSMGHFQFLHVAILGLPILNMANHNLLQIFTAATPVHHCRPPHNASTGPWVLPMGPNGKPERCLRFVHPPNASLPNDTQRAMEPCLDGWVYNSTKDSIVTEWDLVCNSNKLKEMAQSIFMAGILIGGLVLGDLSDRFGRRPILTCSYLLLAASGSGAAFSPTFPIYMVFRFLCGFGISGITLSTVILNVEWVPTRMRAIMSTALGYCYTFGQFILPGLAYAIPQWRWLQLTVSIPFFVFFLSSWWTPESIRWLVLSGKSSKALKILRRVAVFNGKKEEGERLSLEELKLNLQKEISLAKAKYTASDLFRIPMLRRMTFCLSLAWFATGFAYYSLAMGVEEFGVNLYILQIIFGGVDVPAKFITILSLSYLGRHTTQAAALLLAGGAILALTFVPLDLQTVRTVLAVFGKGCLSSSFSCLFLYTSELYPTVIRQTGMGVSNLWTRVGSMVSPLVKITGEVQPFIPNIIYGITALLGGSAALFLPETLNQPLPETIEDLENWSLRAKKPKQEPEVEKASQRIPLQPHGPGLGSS
Chain of OAT1 (Q4U2R8 whole entry): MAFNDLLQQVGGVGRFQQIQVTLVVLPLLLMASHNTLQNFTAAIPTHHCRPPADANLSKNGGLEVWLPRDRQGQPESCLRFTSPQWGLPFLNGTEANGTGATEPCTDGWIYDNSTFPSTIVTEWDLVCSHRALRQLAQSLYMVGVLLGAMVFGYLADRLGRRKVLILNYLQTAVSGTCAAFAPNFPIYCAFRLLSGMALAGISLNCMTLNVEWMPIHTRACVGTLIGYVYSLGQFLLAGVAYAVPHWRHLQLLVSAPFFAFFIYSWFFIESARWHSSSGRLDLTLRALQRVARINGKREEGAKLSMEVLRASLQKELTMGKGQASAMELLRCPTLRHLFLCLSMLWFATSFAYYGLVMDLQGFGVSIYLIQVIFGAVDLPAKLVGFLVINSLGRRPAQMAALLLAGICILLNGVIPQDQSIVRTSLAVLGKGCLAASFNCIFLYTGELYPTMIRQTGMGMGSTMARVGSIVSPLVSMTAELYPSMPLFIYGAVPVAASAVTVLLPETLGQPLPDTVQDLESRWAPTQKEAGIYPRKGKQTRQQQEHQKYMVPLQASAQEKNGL
Chain of OCT2 (O15244 whole entry): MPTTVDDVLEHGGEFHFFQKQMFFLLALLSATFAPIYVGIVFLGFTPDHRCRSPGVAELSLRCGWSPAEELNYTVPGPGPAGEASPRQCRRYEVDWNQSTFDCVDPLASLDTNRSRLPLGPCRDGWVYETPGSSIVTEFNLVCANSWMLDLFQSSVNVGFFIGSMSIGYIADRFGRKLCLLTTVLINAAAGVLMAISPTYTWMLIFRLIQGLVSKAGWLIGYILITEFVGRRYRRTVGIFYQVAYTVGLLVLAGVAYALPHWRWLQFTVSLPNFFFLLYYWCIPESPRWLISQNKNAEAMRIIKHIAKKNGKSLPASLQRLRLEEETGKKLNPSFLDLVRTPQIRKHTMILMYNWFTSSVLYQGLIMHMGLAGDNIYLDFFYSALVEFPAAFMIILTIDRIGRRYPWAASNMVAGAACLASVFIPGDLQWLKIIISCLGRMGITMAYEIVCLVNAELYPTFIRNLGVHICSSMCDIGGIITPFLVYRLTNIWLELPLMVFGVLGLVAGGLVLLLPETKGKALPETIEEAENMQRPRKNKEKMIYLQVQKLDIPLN
Chain of OCT1 (O15245 whole entry): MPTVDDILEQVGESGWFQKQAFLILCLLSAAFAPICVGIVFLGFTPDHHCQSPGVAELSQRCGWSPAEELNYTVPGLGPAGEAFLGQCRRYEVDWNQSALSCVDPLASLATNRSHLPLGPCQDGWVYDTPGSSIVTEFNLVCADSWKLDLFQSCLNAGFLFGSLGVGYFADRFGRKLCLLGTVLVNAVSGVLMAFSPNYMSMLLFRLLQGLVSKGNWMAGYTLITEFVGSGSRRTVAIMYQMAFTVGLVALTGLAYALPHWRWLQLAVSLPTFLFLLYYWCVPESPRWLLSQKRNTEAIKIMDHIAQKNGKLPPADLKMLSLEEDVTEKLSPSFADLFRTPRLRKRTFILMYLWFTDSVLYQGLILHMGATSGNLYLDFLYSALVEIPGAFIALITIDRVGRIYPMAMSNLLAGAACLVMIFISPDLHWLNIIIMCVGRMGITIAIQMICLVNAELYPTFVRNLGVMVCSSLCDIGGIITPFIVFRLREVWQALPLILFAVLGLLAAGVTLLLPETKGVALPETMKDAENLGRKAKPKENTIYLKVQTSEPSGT
Chain of OATP1B1 (Q9Y6L6 whole entry): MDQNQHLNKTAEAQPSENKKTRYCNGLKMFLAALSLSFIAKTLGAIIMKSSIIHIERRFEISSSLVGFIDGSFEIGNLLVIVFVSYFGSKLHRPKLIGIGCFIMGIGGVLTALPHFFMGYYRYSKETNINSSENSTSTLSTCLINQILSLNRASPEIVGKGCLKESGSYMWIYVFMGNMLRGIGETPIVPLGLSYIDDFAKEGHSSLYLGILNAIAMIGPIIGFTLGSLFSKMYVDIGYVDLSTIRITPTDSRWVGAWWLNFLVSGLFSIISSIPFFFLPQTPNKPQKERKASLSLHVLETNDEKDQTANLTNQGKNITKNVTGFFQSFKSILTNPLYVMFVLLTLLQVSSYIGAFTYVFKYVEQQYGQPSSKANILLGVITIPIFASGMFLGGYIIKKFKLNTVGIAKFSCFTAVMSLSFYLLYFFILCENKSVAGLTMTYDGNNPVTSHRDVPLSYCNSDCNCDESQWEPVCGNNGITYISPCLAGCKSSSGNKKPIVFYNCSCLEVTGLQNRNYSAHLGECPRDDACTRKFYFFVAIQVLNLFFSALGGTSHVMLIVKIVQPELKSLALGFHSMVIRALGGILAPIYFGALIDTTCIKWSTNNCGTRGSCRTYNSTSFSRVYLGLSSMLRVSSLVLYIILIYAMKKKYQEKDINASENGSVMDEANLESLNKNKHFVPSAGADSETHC

SMILES: C[C@@H](N)C1CCN(S(=O)(=O)c2cccc3cnccc23)CC1 [NRL-1049]
- exposure versus dose ([1]; in vivo): greater than dose-proportional
- half-life ([1]; mouse, rat, monkey, plasma, single oral dose of NRL-1049, range over mice, rats, and monkeys, read-out: elimination phase half-life (t½)): 0.57 to 6.8 h
- Tmax ([1]; mouse, rat, monkey, plasma, single oral dose of NRL-1049, range over mice, rats, and monkeys, read-out: time to maximum plasma concentration (Tmax)): 0.25 to 2 h
- clearance in hepatocytes [2]: moderate to high clearance
- metabolism by hepatocytes (dog hepatocytes): not metabolized
- clearance rate in hepatocytes (rat hepatocytes): moderate
- tissue distribution ([3]; brain, aorta, inferior vena cava): distributed to brain and vascular tissue
- excretion ([3]; in vivo): excreted in urine
- fraction unbound (plasma protein binding): 0.541 to 0.706
- plasma protein binding (plasma protein): low to moderate
- binding to human serum albumin (human serum albumin): bound
- binding to human alpha1-acid glycoprotein [4]: bound
- metabolism by CYP2D6 (CYP2D6 [5]): primarily mediated
- IC50 (CYP2C8): 160 µM
- IC50 (CYP2D6 [6]): 0.18 µM
- IC50 (CYP3A4/5; first of the two values printed 23/110, read-out: half-maximal inhibitory concentration (IC50)): 23 µM
- IC50 (CYP3A4/5; second of the two values printed 23/110, read-out: half-maximal inhibitory concentration (IC50)): 110 µM
- metabolite or time-dependent inhibition (cytochrome P450 (CYP)): no metabolite or time-dependent inhibition
- induction of CYP1A2 (CYP1A2): 3 fold
- induction of CYP3A4, maximal effective concentration [Emax] (CYP3A4): 2.19 fold
- EC50 (CYP3A4; read-out: induction of CYP3A4, half-maximal effective concentration [EC50]): 41.5 µM
- reduced expression of CYP2B2 (CYP2B2): 0.5 fold
- IC50 (MATE1): 8.54 to 66.2 µM
- IC50 (OAT1): 8.54 to 66.2 µM
- IC50 (OAT3): > 100 µM
- IC50 (OATP1B1): > 100 µM
- IC50 (OATP1B3): > 100 µM
- IC50 (OCT1): 8.54 to 66.2 µM
- IC50 (OCT2): 8.54 to 66.2 µM
- IC50 [7]: > 100 µM
- effect on transporter (P-gp (MDCK2 cells)): no effect
- effect on transporter [8]: no effect
- effect on transporter [9]: no effect
- substrate for BCRP (BCRP): not BCRP
- substrate for P-gp (P-gp): substrate
